Data taken from PubChem BioAssay (NCI).
Several values for one entry are separate records, joined by “and”; a condition that tells them apart may be missing. Identical values can stand only once.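 Briefly, cells in 96-well plates were exposed to five compound concentrations for 48 h, and endpoints were estimated by linear interpolation. GI50: concentration for 50% inhibition of growth. TGI denotes the concentration required for complete inhibition of growth.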

Tests used:
Experiment in all cases: NCI-60 cell line screen, 48 h
[1] = tested on: OVCAR-8 ovarian
[2] = tested on: NCI-H23 lung
[3] = tested on: A549 NSCLC
[4] = tested on: SF-268 CNS
[5] = tested on: SK-OV-3 ovarian
[6] = tested on: UO-31 renal
[7] = tested on: MDA-MB-231 breast
[8] = tested on: SW-620 colon
[9] = tested on: UACC-62 melanoma
[10] = tested on: SF-295 CNS

Structure (SMILES)	GI50 [1]	TGI [1]	GI50 [2]	TGI [2]	GI50 [3]	TGI [3]	GI50 [4]	TGI [4]	GI50 [5]	TGI [5]	GI50 [6]	TGI [6]	GI50 [7]	TGI [7]	GI50 [8]	TGI [8]	GI50 [9]	TGI [9]	GI50 [10]	TGI [10]
O=C(CS(=O)c1nc2ccccc2nc1-c1ccccc1)Nc1ccc(Cl)cc1 (stereo not drawn)	38.3 µM	> 100 µM	30.7 µM	> 100 µM	32.3 µM	> 100 µM	24.9 µM	88.2 µM	51.3 µM	> 100 µM	25000 nM	> 100 µM	18500 nM	49.1 µM	26700 nM	88.2 µM	16000 nM	40.7 µM	15.7 µM	48.7 µM
COc1ccccc1-c1ccc2c(N)c(C(=O)c3ccc4c(c3)OCO4)sc2n1	4.57 µM	16.7 µM	12.9 µM	52.8 µM	4.05 µM	16.6 µM	7.55 µM	32.4 µM	5.97 µM	18.2 µM	4120 nM	16.7 µM	2810 nM	8.59 µM	4340 nM	> 100 µM	4120 nM	18.6 µM	3.98 µM	18.5 µM
Cc1cnc(-c2ccc(-c3ccc(NC(=O)Nc4cccc(C(F)(F)F)c4)cc3F)c3c2C(=O)NC3)[nH]1	14.6 µM	> 57.8 µM	4.42 µM	33.5 µM	7.49 µM	> 47.9 µM	11.4 µM	> 48.1 µM	6.97 µM	39.7 µM	3000 nM	> 50.5 µM	26000 nM	> 57.3 µM	81 nM	17.4 µM	9610 nM	35.5 µM	4.06 µM	33.6 µM
CCN(CC)CCOc1ccc(NC(=O)C(C(C)C)N2C(=O)/C(=C/c3ccc(Br)cc3)SC2=S)cc1 (stereo not drawn)	3.24 µM	10.3 µM	3.74 µM	13.9 µM	3.37 µM	12.5 µM	2.27 µM	5.85 µM	15.9 µM	31.7 µM	2720 nM	12.6 µM	1850 nM	3.67 µM	1970 nM	4.02 µM	1810 nM	3.53 µM	3.41 µM	11.7 µM
COc1ccc2c(c1)C(=O)/C(=C/c1cccc(OCC(=O)c3ccc([N+](=O)[O-])cc3)c1)CO2	2.85 µM	9.66 µM	2.52 µM	6.33 µM	6.72 µM	22.8 µM	2.7 µM	7.74 µM	10.5 µM	23 µM	1470 nM	4.02 µM	3670 nM	14.2 µM	1450 nM	2.96 µM	2820 nM	9.36 µM	2.26 µM	7.1 µM
N#Cc1ccc(O)c(C2=NCC(c3ccc(-c4ccccc4)cc3)O2)c1 (stereo not drawn)	0.361 µM	13 µM	0.703 µM	17.2 µM	0.418 µM	8.06 µM	0.499 µM	16.1 µM	0.664 µM	14.4 µM	406 nM	4.13 µM	823 nM	18.5 µM	387 nM	31.2 µM	407 nM	1.61 µM	0.335 µM	11.8 µM
Cl.[O-]c1cccc2cccnc12.[O-]c1cccc2cccnc12.[O-]c1cccc2cccnc12.[O-]c1cccc2cccnc12.[Ti+4]	0.779 µM	> 31.5 µM	1.4 µM	–	0.89 µM	12 µM	0.594 µM	> 100 µM	3.94 µM	> 73.8 µM	5590 nM	> 100 µM	1260 nM	> 100 µM	393 nM	> 100 µM	1840 nM	14.6 µM	3.09 µM	> 100 µM
Oc1ccccc1/C=N\Nc1ccccc1	4.94 µM	> 100 µM	12 µM	84.1 µM	3.94 µM	> 100 µM	18.6 µM	> 100 µM	70.4 µM	> 100 µM	2350 nM	36.3 µM	553 nM	22.7 µM	2940 nM	> 100 µM	798 nM	10.1 µM	1.63 µM	8.07 µM
N#Cc1ccc(C(=O)c2cnn(-c3ccc(F)cc3)c2N)cc1	> 25 µM	> 25 µM	> 25 µM	> 25 µM	> 25 µM	> 25 µM	> 25 µM	> 25 µM	> 25 µM	> 25 µM	> 25000 nM	> 25 µM	> 23300 nM	> 25 µM	> 25000 nM	> 25 µM	> 25000 nM	> 25 µM	> 25 µM	> 25 µM
CC(=O)OCC1OC([S-])C(OC(C)=O)C(OC(C)=O)C1OC(C)=O.[Au+].c1ccc(CN2[CH-]N(Cc3ccccc3)C(c3ccccc3)=C2c2ccccc2)cc1	3.17 µM and 0.479 µM	11.6 µM and 4.44 µM	1.93 µM and 0.408 µM	4.86 µM and 3.11 µM	–	34.7 µM and 7.32 µM	2.43 µM and 0.458 µM	6.11 µM and 1.78 µM	–	26.3 µM and 5.17 µM	1830 nM and 445 nM	4.31 µM and 1.99 µM	1840 nM and 281 nM	3.62 µM and 0.951 µM	2020 nM and 779 nM	4.61 µM and 2.08 µM	2150 nM and 249 nM	5.62 µM and 1.14 µM	–	20.3 µM and 4.59 µM
O=C1/C=C/[C@@H](O)[C@@H]2C[C@@H](O)C[C@H]2/C=C/CCC[C@H](CCc2ccc(NC(=S)Nc3ccc4c(c3)C(=O)OC43c4ccc(O)cc4Oc4cc(O)ccc43)cc2)O1	0.401 µM	> 100 µM	0.439 µM	> 74 µM	0.448 µM	> 100 µM	0.405 µM	> 100 µM	0.578 µM	> 100 µM	335 nM	> 100 µM	210 nM	0.402 µM	337 nM	–	397 nM	30.7 µM	0.486 µM	> 100 µM
COc1ccc(-c2nsc3c2NC(=O)CC3c2cccc(F)c2)cc1 (stereo not drawn)	7.54 µM	> 100 µM	5.02 µM	> 100 µM	5.16 µM	> 100 µM	6.86 µM	> 100 µM	5.28 µM	> 100 µM	> 100000 nM	> 100 µM	6340 nM	> 100 µM	3080 nM	> 100 µM	4350 nM	> 100 µM	6.68 µM	> 100 µM
Cc1cc2oc(=O)cc(OC/C=C3/CCC(=O)O3)c2cc1C	4.62 µM	19.5 µM	8.04 µM	22.5 µM	13.4 µM	27.1 µM	6.46 µM	40.1 µM	12.8 µM	26.1 µM	1490 nM	4.88 µM	7710 nM	21 µM	2780 nM	11.6 µM	3380 nM	13.6 µM	13.7 µM	32 µM
C=C1C(=O)O[C@H]2C3OC3(C)CC/C=C(/C(=O)OC)[C@@H](OC(C)=O)[C@H](OC(=O)C3(C)OC3C)[C@H]12 (stereo partly drawn)	2.13 µM and 699 nM and 0.351 µg/mL	2.98 µM and 3.01 µg/mL	1.93 µM and 2.68 µM	7.27 µM and 6.54 µM	9.7 µM and 12.5 µM and 5.5 µg/mL	31.6 µM and 17.5 µg/mL	2.44 µM and 3.42 µM and 4.97 µg/mL	35.7 µM and 14.9 µg/mL	9.25 µM and 26.5 µg/mL	18.9 µM and 48 µg/mL	2.29 µM and 2.04 µM and 2.66 µg/mL	6.69 µM and 9.13 µM and 5.8 µg/mL	1230 nM	5.9 µM and 4.71 µM	422 nM and 350 nM and 0.302 µg/mL	3.47 µM and 1.4 µM and 0.762 µg/mL	1.59 µM and 1.66 µg/mL	3.01 µM and 3.64 µg/mL	4.84 µg/mL	14.8 µg/mL
CC[C@H](C)C(=O)O[C@H]1CCC=C2C=C[C@H](C)[C@H](CC[C@@H]3C[C@@H](O)CC(=O)O3)[C@H]21	5.05 µM	> 100 µM	8.37 µM	> 100 µM	11.7 µM	> 100 µM	2.14 µM	> 100 µM	5.96 µM	> 100 µM	5290 nM	> 100 µM	352 nM	2.54 µM	11800 nM	> 100 µM	2510 nM	> 24.4 µM	1.66 µM	4.32 µM
Fc1ccc(-c2c(-c3ccncc3)[nH]c3cccnc23)cc1	> 25 µM	> 25 µM	> 25 µM	> 25 µM	17 µM	> 25 µM	> 25 µM	> 25 µM	10.6 µM	> 25 µM	3200 nM	> 25 µM	> 25000 nM	> 25 µM	> 25000 nM	> 25 µM	12000 nM	> 25 µM	> 25 µM	> 25 µM
CCOC1Oc2ccccc2C(=O)/C1=C\Nc1ccc(C(=O)O)c(O)c1 (stereo not drawn)	19.3 µM	54 µM	21.4 µM	63.1 µM	> 100 µM	> 100 µM	26.1 µM	80.8 µM	21.7 µM	67.6 µM	40200 nM	> 100 µM	14000 nM	31.2 µM	30800 nM	> 100 µM	19600 nM	43.5 µM	21.9 µM	55.4 µM
Cc1c(C(=O)/C=C/c2ccc(Cl)cc2)nnn1-c1ccnc2c(C(F)(F)F)cccc12	42.7 µM	> 100 µM	35.8 µM	> 100 µM	23.7 µM	> 100 µM	21.5 µM	> 100 µM	42.1 µM	92.9 µM	33500 nM	> 100 µM	17200 nM	72.7 µM	> 100000 nM	> 100 µM	26500 nM	> 100 µM	26.9 µM	> 100 µM
COc1ccc(C2CC(c3ccc4ccccc4c3)=NN2c2nc(O)c(C3=c4cc(Cl)ccc4=NC3=O)s2)cc1 (stereo not drawn)	0.0328 µM	–	0.0226 µM and < 0.005 µM	–	0.0251 µM and < 0.005 µM	–	0.0291 µM and < 0.005 µM	–	0.0217 µM and < 0.005 µM	–	19.3 nM and < 5 nM	0.0436 µM and < 0.005 µM	21 nM	0.0462 µM	18.7 nM and < 5 nM	0.0374 µM and < 0.005 µM	29.6 nM and < 5 nM	–	0.0197 µM and < 0.005 µM	0.0491 µM and < 0.005 µM
CN(CO)c1nc(N(C)CO)nc(N(C)CO)n1	23.6 µM	55.6 µM and 38.4 µM	25.4 µM	59.8 µM and 91.7 µM	23.5 µM	64 µM and 26.3 µM	26.2 µM and 18.5 µM	64.1 µM and 70.2 µM	59.1 µM	> 82.1 µM and 54.2 µM	27600 nM	50.3 µM and 56.2 µM	18300 nM	42.9 µM and 46.9 µM	11500 nM	43.6 µM and 70.6 µM	17200 nM	33.8 µM and 25.4 µM	–	> 73.4 µM
O=c1[nH][nH]c(=O)c2c(O)c(-c3ccccc3)ncc12	37 µM and 64.6 µM	649 µM	75.9 µM and 194 µM	827 µM	57.7 µM and 325 µM	807 µM	35 µM and 71.3 µM	> 1000 µM	27.8 µM and 120 µM	93.3 µM and 488 µM	37400 nM and 129000 nM	622 µM	37700 nM and 113000 nM	385 µM	45800 nM and 188000 nM	891 µM	34200 nM and 73500 nM	420 µM	40.7 µM and 69.3 µM	800 µM
CC[C@H](C)[C@H](NC(=O)[C@H]1CCCCN1C)C(=O)N(C)[C@H](C[C@@H](OC(C)=O)c1nc(C(=O)NC23C4C5C2C2C3C4C52C(=O)OC)cs1)C(C)C (stereo partly drawn)	0.00204 µM and 0.0025 µM	> 25 µM	0.00414 µM and 0.0025 µM	> 25 µM	0.00879 µM and 0.0025 µM	> 25 µM	0.00279 µM and 0.0025 µM	> 25 µM	0.0102 µM and 0.0025 µM	> 25 µM	35.8 nM and 11.4 nM	> 25 µM	4.29 nM and 2.5 nM	> 25 µM	1.49 nM and 2.5 nM	> 25 µM	1.1 nM and 2.5 nM	20.1 µM	0.00253 µM and 0.0025 µM	0.0944 µM and 0.282 µM
CN(C)c1ccc(/C=N/n2c(CCCCc3n[nH]c(=S)n3/N=C/c3ccc(N(C)C)cc3)n[nH]c2=S)cc1	> 100 µM	> 100 µM	> 100 µM	> 100 µM	> 100 µM	> 100 µM	> 100 µM	> 100 µM	> 100 µM	> 100 µM	> 100000 nM	> 100 µM	41300 nM	> 100 µM	> 100000 nM	> 100 µM	> 100000 nM	> 100 µM	> 100 µM	> 100 µM
